# Publication PMC6614494, “Molecular and Biochemical Characterization of a Bimodular Xylanase From Marinifilaceae Bacterium Strain SPP2” (Frontiers in Microbiology, 2019)
# Target: T1, XynSPP2 (Labilibaculum antarcticum, UniProt A0A1Y1CHM8)
# T1 construct: gene ALGA_1465; residues 25-450, signal peptide (24 residues) removed, Fn3 + GH10 domains; 34-residue N-terminal pET-28a tag kept; E. coli BL21(DE3)
# Test: TLC of hydrolysis products
# Type: biochemical
# Conditions: 20 uM substrate, citrate-phosphate pH 6.5
# T1 sequence (A0A1Y1CHM8 entry or part of it): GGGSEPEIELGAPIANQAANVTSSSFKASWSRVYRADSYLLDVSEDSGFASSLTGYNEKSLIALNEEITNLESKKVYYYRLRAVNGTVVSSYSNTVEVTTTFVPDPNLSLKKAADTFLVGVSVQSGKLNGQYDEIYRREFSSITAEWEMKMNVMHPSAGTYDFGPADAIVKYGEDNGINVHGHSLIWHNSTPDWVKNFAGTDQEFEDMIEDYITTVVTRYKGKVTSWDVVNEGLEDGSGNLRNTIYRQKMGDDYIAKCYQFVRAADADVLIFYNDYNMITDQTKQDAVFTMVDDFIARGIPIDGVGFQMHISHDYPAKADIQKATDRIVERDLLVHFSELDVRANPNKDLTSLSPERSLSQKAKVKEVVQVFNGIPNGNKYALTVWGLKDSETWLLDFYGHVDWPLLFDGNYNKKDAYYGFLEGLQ
row,SMILES,TLC of hydrolysis products
1,"OC1OC[C@@H](O[C@@H]2OC[C@@H](O[C@@H]3OC[C@@H](O[C@@H]4OC[C@@H](O[C@@H]5OC[C@@H](O)[C@H](O)[C@H]5O)[C@H](O)[C@H]4O)[C@H](O)[C@H]3O)[C@H](O)[C@H]2O)[C@H](O)[C@H]1O (some centres unmarked) [X5, xylopentaose]",Degradations of xylopentaose and xylohexaose by XynSPP2 were largely similar
2,"OC1OC[C@@H](O[C@@H]2OC[C@@H](O[C@@H]3OC[C@@H](O[C@@H]4OC[C@@H](O)[C@H](O)[C@H]4O)[C@H](O)[C@H]3O)[C@H](O)[C@H]2O)[C@H](O)[C@H]1O (some centres unmarked) [X4, xylotetraose]",XynSPP2 hydrolyzed xylotetraose to xylotriose (major) and xylobiose
